# Source: patent publication US20150284362A1, “CARBAZOLE-CONTAINING AMIDES, CARBAMATES, AND UREAS AS CRYPTOCHROME MODULATORS” (ReSet Therapeutics, Inc., priority 2014, published 2015)
# Legend:
# [1] = system: core clock gene mRNAs in liver; test: Four day study, liver core clock gene mRNA, ICR mice; type: in vivo, mouse; conditions: 50 mg/kg PO BID 4 days, ZT6
# Protocol: Male ICR mice (weighing 30-35 g), obtained from Charles River Laboratories (Hollister, Calif.), were used for the experiment following at least 3 days of acclimation. Mice were dosed with vehicle (WFI or 10% Kolliphor) or compound (50 mg/kg, dose volume 5 mL/kg, PO) for 4 days BID (twice a day), beginning in the afternoon of the first day. The last dose of compound or vehicle was administered on the morning of harvest. On the day of harvest (6 hours following the final dose), mice were euthanized by CO2 asphyxiation and 50 mg of liver tissue was excised and placed in a tube containing 500 μl of RNA later.
# E.Z.N.A.® HP Total RNA Isolation Kits (R6812-01 and the protocol described in the Manual, Revised 2010) were utilized to prepare and isolate RNA from the liver samples. To prepare the RNA samples, 10-30 mg of sample was removed from RNA-Later and placed in a 1.5 ml microfuge tube. […] The cleared supernatant was transferred by pipetting to a DNA Clearance Column Pre-inserted in a 2 mL Collection Tube. The assembled column was centrifuged at 13,000×g for 1 minute, and the flow-through was saved. An equal volume (700 μl) of 70% ethanol was added to the lysate and mixed. The sample was then applied to a HiBind RNA spin column placed into a 2 ml collection tube, which was centrifuged at 10,000×g for 60 seconds at room temperature. RNA Wash Buffer I (250 μl) was added by pipetting directly onto a new HiBind RNA column inserted in a 2 ml collection tube. The assembled column was centrifuged at 10,000×g for 60 seconds. The RNA column was placed into a new 2 ml collection tube. […] The column with bound RNA was incubated at room temperature (25-30° C.) for 15 minutes. RNA Wash Buffer I (500 μl) was added to the column and placed on a bench top for 2 minutes. After centrifuging at 10,000×g for 60 seconds, discarding the flow-through, 500 μl of RNA Wash Buffer II was added and centrifuged at 10,000×g for 60 seconds. Another 500 μl of RNA Wash Buffer II was added and the column assembly was centrifuged at 10,000×g for 60 seconds. The column was centrifuged for 2 minutes at maximum speed to completely dry the HiBind matrix. The column was placed in a clean 1.5 ml microcentrifuge tube and 40-70 μl of molecular biology grade water is added. After sitting for 1 minute, the column was centrifuged for 2 minutes at maximum speed to elute the RNA. The isolated RNA was collected into the collection tube.
# RediPlate 96 RiboGreen RNA Quantification Kit (Invitrogen) RediPlate standard curve was prepared by transferring 20 μl reconstituted RNA standard to a RediPlate well reconstituted in 180 μl RediPlate TE buffer. For liver RNAs prepared from 30-100 mg of tissue using a kit similar to the Omega Bio-Tek HP Total RNA Kit and eluted in RNAse-free water in a volume of 50 μl (microliters), 5 μl of the total RNA is diluted in 195 μl of RediPlate TE buffer (1:40 dilution of RNA), mix. […] Alternatively, one can use the FlexStation 3 with Ex 488 nm and Em 525 nm and a Cutoff of 515 nm.
# C57/Bl6J DIO mice [2] = test: 7 day dosing in diet-induced obesity (DIO) mouse model of type II diabetes; type: in vivo; conditions: 30 mg/kg PO QD 7 days (positive control)
# From the text: (§1) Male C57/Bl6J DIO mice were obtained from The Jackson Laboratory (Sacramento, Calif.). […] Animals were accustomed to these conditions for at least 2 weeks before experimentation and used at approximately 24 weeks of age.
# (§2) Significance was accepted when p<0.05.
# C57/Bl6J DIO mice [3] = test: Increasing dosages of Compound 72 over 7 days in diet-induced obesity (DIO) mouse model; type: in vivo; conditions: 30 mg/kg PO QD 7 days
# From the text: as §1, §2
# Male C57/Bl6J DIO mice were obtained from The Jackson Laboratory (Sacramento, Calif.). […] Animals were accustomed to these conditions for at least 2 weeks before experimentation and used at approximately 26 weeks of age.
# Protocol for db/db mice: Male db/db mice homozygous for Lepr^db (6 weeks of age), were obtained from The Jackson Laboratory (Bar Harbor, Me.). Mice were group housed on a normal light/dark cycle (lights on: 07:00-19:00 h) with ad libitum access to a standard pelleted mouse diet and water. Animals were accustomed to these conditions for 2 weeks before experimentation. […] At 10:30 pm on the evening prior to endpoint measurement, mice were placed into clean cages and given free access to water, but not food for a period of 12 hours before the fasting blood glucose measurement. On the final day of the study, animals were dosed as normal, and then underwent a tail cut injury 2 hours prior to measurement of fasting blood glucose, to allow recovery from any stress the procedure might cause. Fasting blood glucose (FBG) was assessed from the animals at 10:30 am using an AlphaTRAK glucometer (Abbott Laboratories, USA). Following the FBG measurement blood was collected from each mouse, using a tail milking technique, into a capillary tube. Capillary tubes were centrifuged in a hematocrit (BD Triac 0200) and the resultant plasma transferred to an eppendorff. This sample, labelled as t=0 hr, was frozen at −80° C. to allow later measurement of insulin. At 11:30 am each animal was dosed with 0.5 g/kg of glucose, then blood glucose was measured at t=15, 30, 60, 90 and 120 minutes after glucose load. At the end of the OGTT blood was collected for a t=2 hr insulin determination as described above.
# Fasting blood glucose values and glucose measurements taken during the OGTT were averaged and graphed (GraphPad Prism, GraphPad Software, La Jolla, Calif.). The area under the curve (AUC) was calculated for each individual animal. Plasma insulin levels were determined using an Ultrasensitive Insulin ELISA (ALPCO, Salem, N.H.). […] Insulin data was also represented in GraphPad Prism format. Statistical analysis was performed using one-way ANOVA followed by the appropriate post-test. Significance was accepted when p<0.05. Data are presented as mean and S.E.M.
SMILES,Cry2 transcripts in liver [1],liver Per2 expression [1],HOMA-IR (C57/Bl6J DIO mice [2]),fasting blood glucose (C57/Bl6J DIO mice [2]),plasma insulin at t=0 (C57/Bl6J DIO mice [2]),plasma insulin at t=2 hr (C57/Bl6J DIO mice [2]),fasting blood glucose (C57/Bl6J DIO mice [3]),HOMA-IR (db/db mice; 30 mg/kg PO QD 7 days),plasma insulin at t=0 (db/db mice; 30 mg/kg PO QD 7 days),plasma insulin at t=2 hr (db/db mice; 30 mg/kg PO QD 7 days),fasting blood glucose (db/db mice; 30 mg/kg PO QD 7 days (positive control))
"O=C1C2CCC(C2)N1CC(O)Cn1c2ccc(F)cc2c2cc(F)ccc21 (stereo not drawn) [Compound 48, 2-(3-(3,6-difluoro-9H-carbazol-9-yl)-2-hydroxypropyl)-2-azabicyclo[2.2.1]heptan-3-one]",decrease,suppression,–,–,–,–,–,–,–,–,–
"COC1CCCN(CC(O)Cn2c3ccc(F)cc3c3cc(F)ccc32)C1=O (stereo not drawn) [Compound 57, 1-(3-(3,6-difluoro-9H-carbazol-9-yl)-2-hydroxypropyl)-3-methoxypiperidin-2-one]",–,suppression,–,–,–,–,–,–,–,–,–
CN(CCOc1ccc(CC2SC(=O)NC2=O)cc1)c1ccccn1 (stereo not drawn) [Rosiglitazone],–,–,24.60+/−1.42 units,153.9 ± 5.05 mg/dL,2.70 ± 0.12 ng/mL,2.30 ± 0.06 ng/mL,161.1 ± 8.06 mg/dL,50.58+/−3.52 units,3.05 ± 0.14 ng/mL,2.28 ± 0.08 ng/mL,280.4 ± 13.66 mg/dL
